Measured values taken from patent publication US11059846B2, “Immune stimulating compound” (ISR IMMUNE SYSTEM REGULATION HOLDING AB (PUBL), priority 2017, dated 2021).

Key:
human TLR2 = molecular target: T1, human TLR2 (Homo sapiens, UniProt O60603); test: TLR2 reporter assay (HEK-293-TLR cells, SEAP reporter); type: cell-based; conditions: compound 1 down to 5 μM; others up to 20 μM
T1 construct: host or cells: recombinant HEK-293-TLR cell lines
Method: These cell lines functionally over-express human TLR2 protein as well as a reporter gene which is a secreted alkaline phosphatase (SEAP). The production of this reporter gene is driven by an NFkB inducible promoter. […] 20 μl of each test article were used to stimulate the hTLR2 reporter cell lines in a 200 μl of final reaction volume. Samples were tested in duplicate, with at least two concentrations tested −20 μM and 10 μM.
Compounds were tested using a TLR2 reporter assay (see general methods) that measured for stimulation of the TLR2 receptor.

[1] = tested on: Human peripheral blood mononuclear cells (PBMCs); test: Marker expression on PBMC by flow cytometry; type: cell-based; conditions: 24 h
Method: Human peripheral blood mononuclear cells (PBMCs) were purified from healthy donors with Ficoll-Paque density centrifugation. Cells were cultured in complete RPMI-1640 media (Invitrogen) supplemented with 25 mM HEPES, L-glutamine, Sodium pyruvate (Sigma), 10% fetal bovine serum, 100 μg/mL penicillin and 100 μg/mL streptomycin (Hyclone) for 24-72 hours in 37° C., 5% CO2 and stimulated with and increasing concentrations of compound 1 and 2. Cells were then washed in PBS and stained with monoclonal antibodies specific for cell surface markers (BD Pharmingen) and analysed with flow cytomtery using a BD FACS Canto II flow cytometer. All samples were tested in duplicates.
Human peripheral blood mononuclear cells (PBMCs) were purified from healthy donors with Ficoll-Paque density centrifugation. Cells were cultured in complete RPMI-1640 medium (Invitrogen) supplemented with 25 mM HEPES, L-glutamine, Sodium pyruvate (Sigma), 10% fetal bovine serum, 100 μg/mL penicillin and 100 μg/mL streptomycin (Hyclone). Cells were stimulated for 24 h (study 1-4) or 48 h to 1 week (study 5) in 37° C., 5% CO2 with increasing concentrations of compound 1 and 2 in tissue culture plates. The cells were removed from the plate, washed in PBS and analysed for expression of cell specific surface markers and MHC class I with flow cytometry using monoclonal antibodies from BD Pharmingen and a FACS Canto II flow cytometer.

[2] = tested on: Monocytes differentiated into macrophages; test: CD80 expression on monocytes differentiated into macrophages, flow cytometry; type: cell-based, Human; conditions: 24 h
[3] = tested on: CMV specific CD8+ T cells; test: CMV cultures: phenotype of CMV specific CD8+ T cells; type: cell-based, Human; conditions: CMV antigen, 6 days
Method: FIG. 8. Upregulation of IL-7 receptor a (CD127) on CMV specific CD8 T cells after incubation with compound 1, measured with flow cytometry.
Human peripheral blood mononuclear cells (PBMCs) were purified from healthy CMV positive donors with Ficoll-Paque density centrifugation. The PBMC were labeled with 5 μM celltrace violet (Invitrogen) in PBS for 15 minutes and then washed with complete cell culture medium. The labeled PBMC was cultured in the presence of a peptide library spanning the CMV pp65 protein (1 μg peptide/ml, JPT) in AIM-V media (Invitrogen) supplemented with L-glutamine, Sodium pyruvate (Sigma), 10% fetal bovine serum, 100 μg/mL penicillin and 100 μg/mL streptomycin (Hyclone) for 6-8 days in 37° C., 5% CO2. Cell proliferation was assessed with flow cytomtery using a BD FACS Canto II flow cytometer.
Study 7: CMV virus specific T cell proliferation was also affected by compound 1. […] CD127 is crucial for T cell homeostasis, differentiation and function, and reduced expression correlates with disease severity in HIV and other chronic viral diseases (Crawley et al Sem Imm 2012).

[4] = tested on: PBMCs from CMV infected donors; test: IFN-gamma secretion from PBMCs of CMV infected donors with CMV antigen, cytometric bead assay; type: cell-based, Human; conditions: 3 days
Source text: FIG. 9: Interferon-gamma secretion (as measured by cytometric bead assay) from PBMCs (from a CMV+ donor) grown with CMV peptides in the presence or absence of compound 1 or 2 for 5 days.
Study 8: PBMCs from CMV infected donors cultured in the presence of CMV antigen where either untreated or exposed to compound 1 or compound 2 for 3 days.

[5] = tested on: Macrophages from healthy donors; test: Cytokine/chemokine secretion from macrophages, cytometric bead assay; type: cell-based; conditions: 2 days
Method: FIG. 10: Interferon-gamma secretion (as measured by cytometric bead assay) from macrophages stimulated with indicated compound for 48 h.
(§1) FIG. 11: Chemokine RANTES secretion (as measured by cytometric bead assay) from PBMC or macrophages stimulated with indicated compound for 48 h.
(§2) FIG. 12: IL12p70 secretion (as measured by cytometric bead assay) from PBMC or macrophages stimulated with indicated compound for 48 h.
(§3) FIG. 13: IL1b secretion (as measured by cytometric bead assay) from PBMC, macro-phages or CD4 T cells stimulated with indicated compound for 48 h.
Study 9: Macrophages from healthy donors where exposed to compounds 1 or 2 for 48 hours. […] Compound 1 is therefore able to induce IFN-gamma secretion in macrophages from healthy donors.
(§4) Study 10: PBMCs and macrophages where exposed to compounds 1 or 2 for 2 days (FIG. 11).
(§5) Study 11: PBMCs and macrophages where exposed to compounds 1 and 2 for 2 days.
(§6) Study 12: PBMCs, macrophages and CD4+ T cells where exposed to compounds 1 and 2 for 2 days.

PBMCs = test: Cytokine/chemokine secretion from PBMC, cytometric bead assay; type: cell-based; conditions: 2 days
Method: as §1, §2, §3, §4, §5, §6

CD4+ T cells = test: IL-1beta secretion from CD4+ T cells, cytometric bead assay; type: cell-based; conditions: 2 days
Method: as §3, §6

C57bl/6 mice [6] = test: CD25 high cells in blood of mice after i.v. injection, flow cytometry; type: in vivo
Method: FIG. 14: % CD25 high cells in blood of C57bl/6 mice injected 24 h previously with indicated dose of compound 1. CD25 expression was measured by flow cytometry.
Study 13: Compound 1 was administered i.v. to C57bl/6 mice at 0.165 mg/kg to 5 mg/kg. CD25+ cell abundance was increased in animals receiving the highest dose of 5 mg/kg (FIG. 14), as was body weight in the same group (not shown).

C57bl/6 mice [7] = test: MHC class I expression on CD11b+ splenocytes of mice after i.v. injection, flow cytometry; type: in vivo; conditions: spleen removed 24 h later
Method: FIG. 15: % MHC class I high CD11b+ cells in spleen of 3 individual C57bl/6 mice injected 24 h previously with indicated compound. MHC class I and CD11b expression was measured by flow cytometry.
Study 14: Compound 1 or 2 was administered i.v. to C57bl/6 mice.

T1 sequence (O60603 21-784): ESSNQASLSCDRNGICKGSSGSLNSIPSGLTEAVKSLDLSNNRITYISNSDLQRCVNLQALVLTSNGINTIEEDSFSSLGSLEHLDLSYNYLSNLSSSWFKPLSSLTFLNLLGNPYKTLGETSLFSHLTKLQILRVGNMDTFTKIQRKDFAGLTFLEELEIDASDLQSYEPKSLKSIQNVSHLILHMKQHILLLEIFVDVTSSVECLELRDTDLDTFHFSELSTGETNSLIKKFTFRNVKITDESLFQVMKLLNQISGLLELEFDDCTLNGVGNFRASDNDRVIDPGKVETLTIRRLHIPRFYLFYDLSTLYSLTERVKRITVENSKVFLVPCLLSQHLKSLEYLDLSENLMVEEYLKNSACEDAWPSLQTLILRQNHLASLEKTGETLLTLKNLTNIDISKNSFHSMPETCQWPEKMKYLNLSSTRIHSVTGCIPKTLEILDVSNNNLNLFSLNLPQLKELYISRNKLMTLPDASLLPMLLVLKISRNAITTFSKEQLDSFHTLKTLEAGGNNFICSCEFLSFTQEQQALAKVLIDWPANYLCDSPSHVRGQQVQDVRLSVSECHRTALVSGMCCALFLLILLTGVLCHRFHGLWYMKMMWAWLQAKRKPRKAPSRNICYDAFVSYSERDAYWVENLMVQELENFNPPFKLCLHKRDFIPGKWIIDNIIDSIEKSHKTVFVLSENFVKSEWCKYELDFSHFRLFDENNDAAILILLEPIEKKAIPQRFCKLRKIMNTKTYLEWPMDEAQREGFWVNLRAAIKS

| SMILES | stimulation of TLR2 (in words) (human TLR2) | CD69 expression on B cells ([1]; 1 μM) | CD69 expression on CD4+ T cells ([1]; 1 μM) | CD80 expression on monocytes [1] | MHC class I (HLA-ABC) expression on B-cells [1] | MHC class I (HLA-ABC) expression on T-cells [1] | MHC class II (HLA-DR) expression on monocytes [1] | CD80 expression on macrophages [2] | expression of IL-7 receptor a (CD127) on activated CMV specific CD8+ T cells [3] | IFN-gamma secretion [4] | IL-1beta secretion in macrophages [5] | RANTES expression in macrophages [5] | IL-1beta secretion in PBMCs (PBMCs) | RANTES expression in PBMCs (PBMCs) | IL-1beta secretion in CD4+ T cells (CD4+ T cells) | body weight (C57bl/6 mice [6]; 5 mg/kg group (not shown)) | CD25+ cell abundance in blood (C57bl/6 mice [6]; highest dose of 5 mg/kg, 24 h) | splenocyte cells (CD11b+) with high MHC I expression (C57bl/6 mice [7]) |
| --- | --- | --- | --- | --- | --- | --- | --- | --- | --- | --- | --- | --- | --- | --- | --- | --- | --- | --- |
| CC[C@H]1OC(=O)[C@H](C)[C@@H](O[C@H]2C[C@@](C)(OC)[C@@H](O)[C@H](C)O2)[C@H](C)[C@@H](O[C@@H]2O[C@H](C)C[C@H](N(C)C)[C@H]2O)[C@](C)(O)C[C@@H](C)CN(C)[C@H](C)[C@@H](O)[C@]1(C)O [Azithromycin] | little or no stimulation |  |  |  |  |  |  |  |  |  |  |  |  |  |  |  |  |  |
| CC[C@H]1OC(=O)[C@H](C)[C@@H](O[C@H]2C[C@@H](N(C)C)[C@H](O)[C@@H](C)O2)[C@H](C)[C@@H](O)[C@](C)(O)C[C@@H](C)CN(C)[C@H](C)[C@@H](O)[C@]1(C)O [Compound 1] | stimulated TLR2 | upregulated | upregulated | upregulation | upregulation | upregulation | upregulation | upregulated | increased expression | induced secretion of high levels | increased | high expression | slightly | twofold upregulation | no IL-1beta was induced | increased | increased | increase |
| CC[C@H]1OC(=O)[C@H](C)[C@@H](O[C@H]2C[C@@](C)(OC)[C@@H](O)[C@H](C)O2)[C@H](C)[C@@H](O[C@@H]2O[C@H](C)C[C@H](N(C)C)[C@H]2O)[C@](C)(O)C[C@@H](C)C(=O)[C@H](C)[C@@H](O)[C@]1(C)O [Erythromycin] | little or no stimulation |  |  |  |  |  |  |  |  |  |  |  |  |  |  |  |  |  |
